These are literature values, as cited in US20040253327A1, “Compositions and methods for reducing or controlling blood cholesterol, lipoproteins, triglycerides, and sugar and preventing or treating cardiovascular diseases” (priority 2003, published 2004).

For series [1] the following is noted: human, in vivo.

Turning to `CN(C)C(=N)N=C(N)N` [metformin], in series [1], the “patients developing gastrointestinal complaints” value was “Up to 30%”; the “reduction of blood triglyceride and LDL cholesterol levels” value is on record as “about 10%”.

As for chromium picolinate, the triglyceride level (after 2 months of supplementation (vs. 161 mg/dl)) is 133 mg/dL. Where the note is “supplementation for 2 months, P<0.05”, the “reduction in triglyceride levels” value was 17.4%.
